In general, pIC50 refers to the IC50 on a negative log10 scale, so that one unit is a factor of ten. The low end stands for a high IC50, the high end for a low IC50.

In experiment [1] the target is T1, human (His)6DGAT1 (Homo sapiens, UniProt O75907).
T1 construct: made in house; host or cells: Sf9 insect cells (membrane preparation)
T1 sequence (O75907 1-488): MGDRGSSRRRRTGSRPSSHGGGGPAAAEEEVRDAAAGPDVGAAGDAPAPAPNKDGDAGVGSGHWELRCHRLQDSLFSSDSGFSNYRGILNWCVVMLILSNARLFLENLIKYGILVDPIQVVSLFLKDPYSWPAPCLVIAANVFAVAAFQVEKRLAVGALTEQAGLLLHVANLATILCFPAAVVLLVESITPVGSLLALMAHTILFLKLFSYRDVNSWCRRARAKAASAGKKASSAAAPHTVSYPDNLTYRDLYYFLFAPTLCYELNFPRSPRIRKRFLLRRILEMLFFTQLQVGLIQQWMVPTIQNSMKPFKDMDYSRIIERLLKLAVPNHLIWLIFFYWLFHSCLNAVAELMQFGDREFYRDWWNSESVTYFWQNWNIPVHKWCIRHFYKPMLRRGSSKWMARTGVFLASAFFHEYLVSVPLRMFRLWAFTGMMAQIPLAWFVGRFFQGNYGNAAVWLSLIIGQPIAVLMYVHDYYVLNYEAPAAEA
Put plainly: DGAT1 Inhibition Assay. Type of experiment: biochemical. The following applies: membrane preparation from Sf9 cells overexpressing human (His)6DGAT1; LC/MS/MS readout. On the procedure:
The enzyme preparation used in this assay is a membrane preparation from Sf9 cells overexpressing human (His)6DGAT1. During all steps samples were chilled to 4° C. Sf9 cells expressing human (His)6DGAT1 were thawed at room temperature and re-suspended at a 10:1 ratio (mL buffer/g of cells) in 50 mM HEPES, 1× Complete Protease Inhibitor, pH 7.5. The re-suspended pellet was homogenized for 1 min using a Brinkman PT 10/35 homogenizer with a 20 mm generator. Cells were lysed using Avestin Emulsiflex (chilled to 4° C.) at 10000-15000 psi. Lysate was centrifuged at 100,000×g for 1 h at 4° C. Supernatant was removed and pellets were re-suspended in 50 mM HEPES, 1× Complete Protease Inhibitor, pH 7.5 at ⅙ the volume of supernatant. Re-suspended pellets were pooled and homogenized with 10 strokes of a Glas-Col motor driven teflon pestle on setting 70. The protein concentration of the membrane preparation was quantified using BCA protein assay with 1% SDS. The membrane preparation was aliquoted, frozen on dry ice, and stored at −80° C.
For 50 mL, 25 mL of 0.2 M HEPES stock buffer, 0.5 mL of 1 M MgCl2 ([…]), and 24.5 mL of milli-Q H2O are added to the 55 mL Wheaton Potter-Elvehjem homogenizer. Enzyme preparation (0.1 mL) is added to buffer and the mixture is homogenized with 5 strokes on ice using the Glas-Col variable speed homogenizer system on setting 70.
For 50 mL, 0.5 mL 10 mM diolein is added to 9.5 mL of EtOH in a 50 mL Falcon screw cap conical centrifuge tube. Five mL of 10 mM sodium acetate pH 4.5 is added followed by 0.5 mL of 10 mM oleoyl-CoA. Finally, the remaining 4.5 mL of 10 mM sodium acetate pH 4.5 is added followed by 30 mL of milli-Q H20. The solution should be gently agitated by hand to induce mixing. The final concentrations of EtOH and sodium acetate are 20% and 2 mM, respectively.
Dry compounds are dissolved in the appropriate volume of DMSO to a final concentration of 10 mM. […] All dilutions are performed in DMSO in a Greiner 384-well microplate. • 1. 2 μL of compound in DMSO is added to the appropriate wells. […] 25 μL of enzyme mix is added to all wells and plate(s) are incubated for 10 min at RT. • 3. […] Plate(s) are vortexed using Troemner multi-tube vortexer (setting 7 for 10 sec). • 4. 25 μL of substrate mix is added to all wells. Plate(s) are vortexed using Troemner multi-tube vortexer (setting 7 for 10 sec). Plate(s) are incubated for 30 min at RT. • 5. 10 μL of 20% acetic acid quench is added to all wells. Plate(s) are vortexed using Troemner multi-tube vortexer (setting 7 for 10 sec). • 6. 50 μL of 1-butanol w/ glyceryl tripalmitoleate internal standard is added to all wells. • 7. Plate(s) are sealed with super pierce strong plate sealer using the thermo-sealer. • 8. Plate(s) are vortexed using Troemner multi-tube vortexer (setting 10 for 5 min). • 9. Plate(s) are centrifuged at 162×g (1000 rpm for GH-3.8 rotor) for 5 min using Beckman GS-6R tabletop centrifuge.
Where indicated, tripalmitolein was used as an internal standard to control for instrument variation.
Column: Thermo Betabasic 4, 2.1×20 mm
Solvent: 10 mM Ammonium Formate, 0.1% Formic Acid, 2% water, 98% Methanol
Isocratic run 0.5 ml per minute
Data is converted to % inhibition prior to curve fitting using the following equation: […]

Experiment [2] deals with T2, DGAT1 in C2C12 cells (Mus musculus, UniProt Q9Z2A7).
T2 construct: endogenous in cells; host or cells: C2C12 mouse skeletal muscle cells
T2 sequence (Q9Z2A7 1-498): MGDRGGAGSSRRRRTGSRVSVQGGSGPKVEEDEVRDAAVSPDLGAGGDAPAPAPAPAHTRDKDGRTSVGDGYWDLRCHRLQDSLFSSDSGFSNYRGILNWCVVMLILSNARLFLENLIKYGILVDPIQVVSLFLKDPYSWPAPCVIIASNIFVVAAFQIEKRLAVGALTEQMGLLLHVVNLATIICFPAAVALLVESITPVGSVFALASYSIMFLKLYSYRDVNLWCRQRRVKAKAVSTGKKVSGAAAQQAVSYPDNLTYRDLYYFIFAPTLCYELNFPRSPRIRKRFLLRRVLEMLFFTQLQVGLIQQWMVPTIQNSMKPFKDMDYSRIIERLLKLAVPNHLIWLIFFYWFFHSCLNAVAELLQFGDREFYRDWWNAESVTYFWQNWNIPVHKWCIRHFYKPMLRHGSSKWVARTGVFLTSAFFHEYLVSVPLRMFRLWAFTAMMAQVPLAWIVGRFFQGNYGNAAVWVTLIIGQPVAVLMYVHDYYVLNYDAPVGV
Put plainly: Cellular assay to measure activity of DGAT1 inhibitors in mammalian cells (C2C12). Type of experiment: cell-based. The following applies: C2C12 mouse skeletal muscle cells, 250 μM oleate, 2 h, LC/MS readout. Here is the method:
C2C12 cells are an immortal mouse skeletal muscle cell line showing an 8-fold enrichment form DGAT1 versus DGAT2. C2C12 cells were routinely cultured in 150 cm2 flasks with DMEM (25 mM glucose) containing 10% FBS, 4 m M L-glutamine, 100 U/ml penicillin and 100 μg/ml streptomycin (30 ml per flask), at 37° C., 5% CO2 and 95% humidity. All studies were performed on cells at passage 10 or less.
C2C12 cells were seeded in 96-well plates in DMEM containing […] glucose and 10% FBS, 18 h (at 37° C.) prior to assay (all wells of the plate are used). […] Compounds were added at 1:3 dilution, 11 points and DMSO control, the starting concentration was usually 40 μM. Each point was dosed in quadruplicate allowing 2 compounds to be dosed per plate. The medium was removed at the end of the incubation and 200 μl/well of 1-butanol added. The 1-butanol contained an internal standard, tripalmitolein (2 μM). The plates were sealed with an adhesive plate sealer and left at room temperature for at least 30 min, then spun down at 209×g for 5 min.
Butanolic extracts were transferred to 384-well LC-MS plates (80 μl/well) and the plate heatsealed with a foil plate sealer. The 384-well plates containing sample were spun down at 209×g for 5 min prior to loading on the LC-MS.
Where indicated, tripalmitolein was used as an internal standard to control for instrument variation. HPLC conditions as above.

pIC50: −log10 of the molar value.

For the compound `CC(C)(C)c1cnc(Nc2ccc(-c3ccc(C45CCC(CC(=O)O)(CC4)OC5)cc3)nc2)o1` [Example 14, 2-(4-(4-(5-((5-(tert-butyl)oxazol-2-yl)amino)pyridin-2-yl)phenyl)-2-oxabicyclo[2.2.2]octan-1-yl)acetic acid], the results for the pIC50 in experiment [1] and in experiment [2] were 6.89 and 6.97, respectively.

As to `CC(C)(C)c1nnc(Nc2ccc(-c3ccc(C45CCC(CC(=O)O)(CC4)O5)cc3)cc2)o1` [Example 22, 2-(4-(4′-((5-(tert-butyl)-1,3,4-oxadiazol-2-yl)amino)-[1,1′-biphenyl]-4-yl)-7-oxabicyclo[2.2.1]heptan-1-yl)acetic acid], the negative-log IC50 (pIC50) was 5.77 in experiment [1] and 6.53 in experiment [2].

For the compound `O=C(O)CC12CCC(c3ccc(-c4ccc(Nc5nnc(C6CCC6)s5)nc4)cc3)(CC1)CO2` [Example 5, 2-(4-(4-(6-((5-cyclobutyl-1,3,4-thiadiazol-2-yl)amino)pyridin-3-yl)phenyl)-2-oxabicyclo[2.2.2]octan-1-yl)acetic acid], the negative logarithm of the IC50 (pIC50) in experiment [1] is 6.43; in experiment [2], 5.91.

For the compound `O=C(O)CC12CCC(c3ccc(-c4ccc(Nc5nnc(C6CCC6)o5)cc4)cc3)(CC1)OC2` [Example 19, {1-[4′-(5-cyclobutyl-[1,3,4]oxadiazol-2-ylamino)-biphenyl-4-yl]-2-oxa-bicyclo[2.2.2]oct-4-yl}-acetic acid], the values for the pIC50 in experiment [1] and in experiment [2] were 6.59 and 8.22, respectively.

Consider `CC(C)(C)c1cnc(Nc2ccc(-c3ccc(C45CCC(CC(=O)O)(CC4)OC5)cc3)cc2)o1` [Example 15, 2-(4-(4′-((5-(tert-butyl)oxazol-2-yl)amino)-[1,1′-biphenyl]-4-yl)-2-oxabicyclo[2.2.2]octan-1-yl)acetic acid], for which the negative logarithm of the IC50 (pIC50) was 7.36 in experiment [1] and 8.15 in experiment [2].

Regarding `CC(C)(C)c1nnc(Nc2ccc(-c3ccc(C45CCC(CC(=O)O)(CC4)OC5)cc3)cc2)o1` [Example 8, 2-(4-(4′-(5-tert-butyl-1,3,4-oxadiazol-2-ylamino)biphenyl-4-yl)-2-oxabicyclo[2.2.2]octan-1-yl)acetic acid], the pIC50 was 7.00 in experiment [1] and 8.05 in experiment [2].

The values are drawn from patent US8993619B2, “Cyclic bridgehead ether DGAT1 inhibitors” (Novartis AG, priority 2012, dated 2015).
